“And” between values parts separate entries of the source, which are not always exact repeats. Equal values may be shown once.
Experiments:
CaMKIIα(h) = CaMKIIα(h) (Homo sapiens, UniProt Q9UQM7); assay: Kinase selectivity panel (residual activity at 1 μM); assay type: biochemical; settings: inhibitor at 1 μM; read-out: residual kinase activity in % of maximal activity
CaMKIIβ(h) = CaMKIIβ(h) (Homo sapiens, UniProt Q13554); assay: as above; assay type: biochemical; settings: inhibitor at 1 μM; read-out: residual kinase activity in % of maximal activity
[1] = system: CA3–CA1 LTP in CaMKII T286A mutant slices; assay: LTP field recordings in hippocampal slices of T286A mice; assay type: cell-based, mouse; settings: for fEPSP slope (normalized to baseline): individual slices, sheet 3c
Procedure: WT and mutant mouse hippocampal slices were prepared using P56–P70 mice. Isoflurane-anesthetized mice were rapidly decapitated, and the brain was dissected in an ice-cold high-sucrose solution containing 220 mM sucrose, 12 mM MgSO4, 10 mM glucose, 0.2 mM CaCl2, 0.5 mM KCl, 0.65 mM NaH2PO4, 13 mM NaHCO3 and 1.8 mM ascorbate. Transverse hippocampal slices (400 μm) were made using a tissue chopper (McIlwain) and transferred into 32 °C ACSF containing 124 mM NaCl, 3.5 mM KCl, 1.3 mM NaH2PO4, 26 mM NaHCO3, 10 mM glucose, 2 mM CaCl2, 1 mM MgSO4 and 1.8 mM ascorbate. All slices were recovered in 95% O2/5% CO2 for at least 1.5 h before experimentation.
For electrophysiological slice recording experiments, a glass micropipette (typical resistance of 0.4–0.8 megaohm when filled with ACSF) was used to record fEPSPs from the CA1 dendritic layer in response to stimulation of the Schaffer collaterals using a tungsten bipolar electrode. Slices were continually perfused with 30.5 °C ± 0.5 °C ACSF at a rate of 2.5 ± 0.5 ml min^−1 during recordings. Stimuli were delivered every 20 s, and three responses (1 min) were averaged for analysis. Data were analysed using WinLTP software with slope calculated as the initial rise from 10 to 60% of the response peak. Input–output curves were generated by increasing the stimulus intensity at a constant interval until a maximum response or population spike was noted to determine stimulation that elicits 50% of maximum slope. […] A stable baseline was acquired for a minimum of 20 min at 50% maximum slope before high-frequency stimulation (HFS; 2 × 100 Hz, 10 s interval) was applied. Responses were recorded for 40 or 60 min after HFS. Change in slope was calculated as a ratio of the average slope of the 20 min baseline (before HFS). Bar graphs of the percentage of fEPSP slope were calculated by averaging the last 10 min time points post-HFS and normalized to baseline.

[2] = target: PI3 Kinase (p110a/p85a)(h) (Homo sapiens, UniProt P42336); assay: Kinase selectivity panel (residual activity at 1 μM); assay type: biochemical; settings: inhibitor at 1 μM; read-out: residual kinase activity in % of maximal activity
Pim-3(h) = Pim-3(h) (Homo sapiens, UniProt Q86V86); assay: as above; assay type: biochemical; settings: inhibitor at 1 μM; read-out: residual kinase activity in % of maximal activity
[3] = target: purified CaMKIIα binding to GST–GluN2B-c S1303A (Homo sapiens, UniProt Q9UQM7); assay: CaMKII binding to immobilized GST–GluN2B-c S1303A in vitro
CaMKIIδ(h) = CaMKIIδ(h) (Homo sapiens, UniProt Q13557); assay: Kinase selectivity panel (residual activity at 1 μM); assay type: biochemical; settings: inhibitor at 1 μM; read-out: residual kinase activity in % of maximal activity
Arg(h) = Arg(h) (Homo sapiens, UniProt P42684); assay: as above; assay type: biochemical; settings: inhibitor at 1 μM; read-out: residual kinase activity in % of maximal activity
CDK5/p35(h) = CDK5/p35(h) (Homo sapiens, UniProt Q00535); assay: as above; assay type: biochemical; settings: inhibitor at 1 μM; read-out: residual kinase activity in % of maximal activity
PKG1β(h) = PKG1β(h) (Homo sapiens, UniProt Q13976); assay: as above; assay type: biochemical; settings: inhibitor at 1 μM; read-out: residual kinase activity in % of maximal activity
Ret(h) = Ret(h) (Homo sapiens, UniProt P07949); assay: as above; assay type: biochemical; settings: inhibitor at 1 μM; read-out: residual kinase activity in % of maximal activity
[4] = system: GFP–paCaMKII F89G in hippocampal neurons; assay: paCaMKII F89G photoactivation: synaptic enrichment in hippocampal neurons; assay type: cell-based
Procedure: Neurons were wrapped in aluminium foil immediately following transfection and only exposed to red light in imaging. One image was then taken of each neuron to serve as a pre-photoactivation baseline. Immediately following this baseline image, paCaMKII was globally photoactivated with a 405 nm laser pulse (100 ms exposure, 75% laser power) once every 10 s for a total of 60 s. Neurons were then imaged 15 min after stimulation and assessed for CaMKII synaptic enrichment and dendritic spine growth.
Neuronal cultures were transfected on DIV 15–18 and imaged 24–48 h later. […] Two-dimensional maximum-intensity projection images were then generated and analysed using a custom-build programme in ImageJ. The programme utilizes combinatorial thresholding to mask regions of the cell that contain high-intensity puncta of postsynaptic density protein 95 (PSD95; a marker of the post-synaptic side of excitatory synapses in dendritic spines) and regions of the dendritic shaft that contain no fluorescence intensity of PSD95. As a measure of synaptic enrichment, the ratio of mean CaMKII fluorescence intensity of the PSD95 mask to the mean CaMKII fluorescence intensity in the dendritic shaft mask is measured. Spine growth was assessed by measuring the changes in mCherry cell fill fluorescence intensity within dendritic spine divided by the initial fluorescence intensity (F/F0).

[5] = target: T1, GFP–CaMKII F89G / mCh-GluN2B-c tail in HEK293 cells (Homo sapiens, UniProt Q9UQM7, F89G); assay: Ionomycin-induced colocalization of GFP–CaMKII F89G and mCherry-2BC in HEK293 cells; assay type: cell-based; settings: 10 µM NM-PP1
T1 construct: expressed in transfected cells; host or cells: HEK293
T1 sequence (Q13224 836-1484 S1303A): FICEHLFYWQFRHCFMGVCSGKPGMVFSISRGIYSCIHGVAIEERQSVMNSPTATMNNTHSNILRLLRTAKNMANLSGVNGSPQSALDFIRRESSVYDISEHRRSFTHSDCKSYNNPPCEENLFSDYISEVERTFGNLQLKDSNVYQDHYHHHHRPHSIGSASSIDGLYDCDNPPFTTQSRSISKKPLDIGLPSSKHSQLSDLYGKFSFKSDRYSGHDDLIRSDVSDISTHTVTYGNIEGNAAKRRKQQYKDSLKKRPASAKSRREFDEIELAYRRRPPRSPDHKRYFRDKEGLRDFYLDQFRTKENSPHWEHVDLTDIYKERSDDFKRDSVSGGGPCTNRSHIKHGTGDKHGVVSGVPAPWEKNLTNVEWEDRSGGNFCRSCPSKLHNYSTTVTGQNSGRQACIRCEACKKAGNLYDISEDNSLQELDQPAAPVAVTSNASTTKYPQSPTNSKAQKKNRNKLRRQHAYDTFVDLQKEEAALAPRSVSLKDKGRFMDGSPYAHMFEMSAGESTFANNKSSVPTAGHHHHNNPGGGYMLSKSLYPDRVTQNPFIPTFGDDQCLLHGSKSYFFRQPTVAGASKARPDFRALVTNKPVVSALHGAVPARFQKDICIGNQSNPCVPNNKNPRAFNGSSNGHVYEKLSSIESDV
T1 sequence (Q9UQM7 whole entry F89G): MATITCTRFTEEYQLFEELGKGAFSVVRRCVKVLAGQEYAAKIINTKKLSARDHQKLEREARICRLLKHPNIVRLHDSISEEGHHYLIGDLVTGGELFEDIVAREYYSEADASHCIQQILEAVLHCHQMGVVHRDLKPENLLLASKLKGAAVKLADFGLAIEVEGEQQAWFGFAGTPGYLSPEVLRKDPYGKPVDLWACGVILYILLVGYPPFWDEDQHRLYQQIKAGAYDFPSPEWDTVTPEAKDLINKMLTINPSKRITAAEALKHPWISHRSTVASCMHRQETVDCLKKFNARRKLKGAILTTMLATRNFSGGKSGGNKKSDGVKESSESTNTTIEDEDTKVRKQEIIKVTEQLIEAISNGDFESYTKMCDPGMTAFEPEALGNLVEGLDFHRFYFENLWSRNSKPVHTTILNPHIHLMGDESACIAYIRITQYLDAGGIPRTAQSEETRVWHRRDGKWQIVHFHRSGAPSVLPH

Chain of CaMKIIα(h) (Q9UQM7 whole entry): as the sequence (Q9UQM7 whole entry F89G) above, with G89F counted along it
Chain of PKG1β(h) (Q13976 1-686 isoform Q13976-2): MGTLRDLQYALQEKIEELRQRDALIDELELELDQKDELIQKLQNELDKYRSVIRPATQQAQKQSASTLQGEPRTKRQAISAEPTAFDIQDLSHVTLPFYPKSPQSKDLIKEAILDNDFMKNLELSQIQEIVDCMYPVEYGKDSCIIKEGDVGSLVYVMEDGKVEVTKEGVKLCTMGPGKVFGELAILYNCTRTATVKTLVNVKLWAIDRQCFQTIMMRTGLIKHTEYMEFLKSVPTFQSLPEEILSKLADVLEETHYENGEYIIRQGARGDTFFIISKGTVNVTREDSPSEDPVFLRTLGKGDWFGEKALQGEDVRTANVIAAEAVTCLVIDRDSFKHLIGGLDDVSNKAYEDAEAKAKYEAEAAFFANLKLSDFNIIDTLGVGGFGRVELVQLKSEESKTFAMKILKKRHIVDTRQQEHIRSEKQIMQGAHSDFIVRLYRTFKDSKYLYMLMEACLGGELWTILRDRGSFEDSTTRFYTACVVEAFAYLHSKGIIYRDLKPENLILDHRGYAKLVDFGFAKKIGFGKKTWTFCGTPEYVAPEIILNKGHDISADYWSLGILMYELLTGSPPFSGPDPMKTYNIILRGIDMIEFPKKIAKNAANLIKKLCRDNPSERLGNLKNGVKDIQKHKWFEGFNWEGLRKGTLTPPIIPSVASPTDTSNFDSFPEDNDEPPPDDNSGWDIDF
Chain of Ret(h) (P07949 29-1114): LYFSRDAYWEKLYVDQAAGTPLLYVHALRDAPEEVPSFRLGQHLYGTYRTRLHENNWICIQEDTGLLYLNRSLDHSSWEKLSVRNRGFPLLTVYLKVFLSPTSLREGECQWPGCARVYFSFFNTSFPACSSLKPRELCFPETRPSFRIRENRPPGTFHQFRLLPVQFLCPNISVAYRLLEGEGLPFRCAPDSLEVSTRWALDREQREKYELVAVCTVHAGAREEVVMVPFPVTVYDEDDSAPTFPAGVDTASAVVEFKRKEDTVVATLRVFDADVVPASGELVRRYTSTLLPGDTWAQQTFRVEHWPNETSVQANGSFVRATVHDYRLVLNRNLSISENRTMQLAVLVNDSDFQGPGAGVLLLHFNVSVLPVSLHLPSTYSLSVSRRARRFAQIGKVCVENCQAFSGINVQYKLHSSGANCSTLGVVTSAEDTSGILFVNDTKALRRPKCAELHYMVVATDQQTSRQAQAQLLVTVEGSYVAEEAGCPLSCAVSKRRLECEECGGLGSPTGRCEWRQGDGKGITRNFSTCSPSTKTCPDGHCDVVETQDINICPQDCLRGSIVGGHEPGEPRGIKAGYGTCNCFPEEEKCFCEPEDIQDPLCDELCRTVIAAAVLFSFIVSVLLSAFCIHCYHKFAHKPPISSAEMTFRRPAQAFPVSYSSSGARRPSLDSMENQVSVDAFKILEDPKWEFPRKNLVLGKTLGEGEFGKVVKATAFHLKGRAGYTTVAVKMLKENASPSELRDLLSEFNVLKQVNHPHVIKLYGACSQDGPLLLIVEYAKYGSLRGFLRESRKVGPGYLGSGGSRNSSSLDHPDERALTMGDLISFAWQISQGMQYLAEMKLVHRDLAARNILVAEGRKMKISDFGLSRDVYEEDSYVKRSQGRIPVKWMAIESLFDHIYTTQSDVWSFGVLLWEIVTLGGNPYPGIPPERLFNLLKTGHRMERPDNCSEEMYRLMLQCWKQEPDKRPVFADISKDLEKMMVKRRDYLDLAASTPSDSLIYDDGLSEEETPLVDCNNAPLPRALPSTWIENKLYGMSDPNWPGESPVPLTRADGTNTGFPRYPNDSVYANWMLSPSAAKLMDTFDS
Chain of CDK5/p35(h) (Q00535 whole entry): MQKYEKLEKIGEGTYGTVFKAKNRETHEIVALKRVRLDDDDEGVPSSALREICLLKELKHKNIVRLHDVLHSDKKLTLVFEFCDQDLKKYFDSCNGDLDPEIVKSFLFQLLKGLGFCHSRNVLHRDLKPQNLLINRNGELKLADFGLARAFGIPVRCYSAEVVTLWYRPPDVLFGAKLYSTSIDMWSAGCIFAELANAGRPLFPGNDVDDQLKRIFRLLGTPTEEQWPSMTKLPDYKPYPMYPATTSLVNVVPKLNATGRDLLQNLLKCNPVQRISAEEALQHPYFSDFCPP
Chain of CDK5/p35(h) (Q15078 whole entry partner): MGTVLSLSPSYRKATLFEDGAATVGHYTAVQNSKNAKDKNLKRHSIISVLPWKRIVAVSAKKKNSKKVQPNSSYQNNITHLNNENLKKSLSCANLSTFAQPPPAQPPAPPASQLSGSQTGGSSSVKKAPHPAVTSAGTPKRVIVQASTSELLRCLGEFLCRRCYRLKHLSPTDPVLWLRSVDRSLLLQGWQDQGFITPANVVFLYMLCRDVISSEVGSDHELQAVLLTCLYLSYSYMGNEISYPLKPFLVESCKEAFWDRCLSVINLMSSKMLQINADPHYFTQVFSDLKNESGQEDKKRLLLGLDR
Chain of CaMKIIδ(h) (Q13557 whole entry): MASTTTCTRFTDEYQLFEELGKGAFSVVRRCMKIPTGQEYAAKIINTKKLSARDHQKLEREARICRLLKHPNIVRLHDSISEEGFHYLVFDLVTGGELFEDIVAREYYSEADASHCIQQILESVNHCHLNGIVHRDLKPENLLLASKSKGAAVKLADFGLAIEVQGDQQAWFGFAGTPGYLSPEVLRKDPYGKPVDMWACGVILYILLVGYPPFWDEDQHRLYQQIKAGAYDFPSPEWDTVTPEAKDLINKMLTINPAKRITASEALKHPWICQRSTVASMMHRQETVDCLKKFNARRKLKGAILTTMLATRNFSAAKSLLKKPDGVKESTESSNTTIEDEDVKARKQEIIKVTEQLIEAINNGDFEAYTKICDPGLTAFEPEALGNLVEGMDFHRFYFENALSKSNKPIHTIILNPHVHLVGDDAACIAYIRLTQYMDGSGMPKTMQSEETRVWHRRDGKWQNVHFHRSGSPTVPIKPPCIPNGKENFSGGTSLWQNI

For `NCCNc1cccc(-c2ccnc3[nH]c4ccccc4c23)c1` [AS283], the remaining activity at 1 µM (CaMKIIα(h)) was 3%, the remaining activity at 1 µM (CaMKIIβ(h)) was 5% and the “effect on LTP in slices from T286A mutant mice” value ([1]; AS283 10 μM) was “enabled LTP”. The “LTP quantification (fEPSP slope normalized to baseline)” value ([1]; T286A mice, 10 μM AS283 during LTP induction) was 173.525% and 142.167% and 174.092% and 153.624%, the “fEPSP slope (normalized to baseline)” value ([1]; Time (min) 1.33333) was 226.574 and 276.052 and 180.946 and 150.731 and the “fEPSP slope (normalized to baseline)” value ([1]; Time (min) 2.33333) was 192.365 and 206.349 and 186.037 and 149.446. The “fEPSP slope (normalized to baseline)” value ([1]; Time (min) 3.33333) was 182.945 and 175.983 and 184.471 and 147.196, the “fEPSP slope (normalized to baseline)” value ([1]; Time (min) 4.33333) was 177.987 and 162.181 and 176.442 and 135.626 and the “fEPSP slope (normalized to baseline)” value ([1]; Time (min) 5.33333) was 158.156 and 152.519 and 169.979 and 137.876. For the same compound, the “fEPSP slope (normalized to baseline)” value ([1]; Time (min) 6.33333) was 150.223 and 154.589 and 168.609 and 152.017, the “fEPSP slope (normalized to baseline)” value ([1]; Time (min) 7.33333) was 124.442 and 151.829 and 171.154 and 133.698 and the “fEPSP slope (normalized to baseline)” value ([1]; Time (min) 8.33333) was 102.628 and 144.237 and 169 and 134.983. The “fEPSP slope (normalized to baseline)” value ([1]; Time (min) 9.33333) was 104.115 and 145.618 and 173.309 and 134.983, the “fEPSP slope (normalized to baseline)” value ([1]; Time (min) 10.3333) was 122.955 and 140.787 and 178.596 and 135.626 and the “fEPSP slope (normalized to baseline)” value ([1]; Time (min) 11.3333) was 100.149 and 132.505 and 172.721 and 133.055. The “fEPSP slope (normalized to baseline)” value ([1]; Time (min) 12.3333) was 126.921 and 132.505 and 175.267 and 134.662, the “fEPSP slope (normalized to baseline)” value ([1]; Time (min) -1) was 91.7204 and 91.0973 and 91.6479 and 102.523 and the “fEPSP slope (normalized to baseline)” value ([1]; Time (min) -2) was 90.7288 and 96.6184 and 93.802 and 102.844. For the same compound, the “fEPSP slope (normalized to baseline)” value ([1]; Time (min) -3) was 103.619 and 106.97 and 89.298 and 98.6662, the “fEPSP slope (normalized to baseline)” value ([1]; Time (min) -4) was 104.115 and 88.3368 and 91.2562 and 100.916 and the “fEPSP slope (normalized to baseline)” value ([1]; Time (min) -5) was 91.7204 and 91.0973 and 97.7186 and 101.237. The “fEPSP slope (normalized to baseline)” value ([1]; Time (min) -6) was 96.1825 and 96.6184 and 96.7395 and 100.273, the “fEPSP slope (normalized to baseline)” value ([1]; Time (min) -7) was 87.2583 and 94.548 and 98.5019 and 100.916 and the “fEPSP slope (normalized to baseline)” value ([1]; Time (min) -8) was 96.1825 and 95.9282 and 99.6769 and 97.7021. For the same compound, the “fEPSP slope (normalized to baseline)” value ([1]; Time (min) -9) was 98.6614 and 96.6184 and 102.614 and 101.88, the “fEPSP slope (normalized to baseline)” value ([1]; Time (min) -10) was 90.7288 and 91.0973 and 99.0894 and 97.0593 and the “fEPSP slope (normalized to baseline)” value ([1]; Time (min) -11) was 103.124 and 102.139 and 101.439 and 98.9876. The “fEPSP slope (normalized to baseline)” value ([1]; Time (min) -12) was 109.073 and 120.083 and 100.656 and 94.4882, the “fEPSP slope (normalized to baseline)” value ([1]; Time (min) -13) was 105.602 and 105.59 and 103.398 and 96.4165 and the remaining activity at 1 µM [2] was 100%. The remaining activity at 1 µM (Pim-3(h)) was 97%, the “bound CaMKIIα (immunoblot, relative)” value ([3]; Ca2+/CaM, 10 μM AS283, no nucleotide, GST–GluN2B-c S1303A) was 4.303 and 5.73 and 6.682 and the “enhancing effect on CaMKII binding compared with ATP” value ([3]; GluN2B S1303A mutant) was “indistinguishable”. The remaining activity at 1 µM (CaMKIIδ(h)) was 2%, the remaining activity at 1 µM (Arg(h)) was 96% and the remaining activity at 1 µM (CDK5/p35(h)) was 33%. It also gave a remaining activity at 1 µM (PKG1β(h)) of 38% and a remaining activity at 1 µM (Ret(h)) of 44%.
With `CC(C)(C)n1nc(Cc2cccc3ccccc23)c2c(N)ncnc21` [NM-PP1] the “CaMKII movement after photoactivation of paCaMKII F89G” value ([4]; NM-PP1 10 μM) was “enabled similar movement”, the “synaptic enrichment after photoactivation (sheet 6e)” value ([4]; paCaMKII F89G + NM-PP1, individual neurons) was 1.231 and 1.446 and 1.136 and 1.385 and 1.127 and 1.67 and 1.6203 and 1.284 and 0.7763 and 1.224 and 1.168 and 1.296 and 1.013 and 0.919 and 1.131 and 1.135 and 1.776 and the “effect on binding of CaMKII F89G to GluN2B in HEK cells” value [5] was “fully enabled binding”.

Reference: publication PMC10482691, “LTP induction by structural rather than enzymatic functions of CaMKII” (Nature, 2023)
